Literature values, collected in patent publication US20250134380A1, “DETECTION AND LOCALIZATION OF DISEASE UTILIZING FLUORESCENCE SPECTRA OF EXOGENOUS FLUOROPHORES” (PREVIEW MEDICAL INC., priority 2022, published 2025).

Test system: hyperthermia treated tumor
Conditions: animal models; hyperthermia treated vs non-hyperthermia treated tumors

CC1(C)C(/C=C/C=C/C=C/C=C2\N(CCCCS(=O)(=O)O)c3ccc4ccccc4c3C2(C)C)=[N+](CCCCS(=O)(=O)[O-])c2ccc3ccccc3c21 [ICG, Indocyanine green]
ICG uptake in hyperthermia treated tumor relative to non-hyperthermia treated tumors: 1.23 times
